Residues, ends and D or L forms follow the SMILES beside them. *: point of attachment. 5FAM = O=C1OC2(c3ccc(O)cc3Oc3cc(O)ccc32)c2ccc(C(=O)*)cc21; Ahx = NCCCCCC(=O)O

This assay has as its target T1, Vif/EloB/C/CBFβ (UniProt P69723+Q15369).
T1 construct: Vif in the context of the Vif/EloB/C/CBFβ is full-length Vif (amino acids 1-192); co-expressing EloB1-118 and EloC17-112 from MCS1 and MCS2, respectively, from a pETDuet-1 vector (pEloBC); made in house; host or cells: E. coli BL21(DE3)
The assay can be described thus: Fluorescence anisotropy of 5-FAM Cul5 peptides with Vif/EloB/C/CBFβ. Type of assay: binding, HIV-1 Vif; human EloB/C/CBFβ. The text has this:
The dissociation constant (KD) for each interaction is provided.
On the technique in general: In fluorescence polarisation assays a small probe gives low polarisation when free and higher when bound to something large.
Consider `CC(C)C[C@H](NC(=O)[C@H](CS)NC(=O)[C@@H](NC(=O)[C@H](C)NC(=O)[C@H](Cc1c[nH]cn1)NC(=O)[C@@H](NC(=O)[C@H](CC(=O)O)NC(=O)[C@H](CO)NC(=O)[C@H](Cc1ccccc1)NC(=O)[C@H](CC(C)C)NC(=O)[C@H](CC(=O)O)NC(=O)[C@H](Cc1ccccc1)NC(=O)[C@H](Cc1c[nH]c2ccccc12)NC(=O)[C@H](CCC(N)=O)NC(=O)[C@H](CCC(N)=O)NC(=O)[C@H](CCCCN)NC(=O)CCCCCNC(=O)c1ccc2c(c1)C(=O)OC21c2ccc(O)cc2Oc2cc(O)ccc21)C(C)C)C(C)C)C(=O)N[C@@H](Cc1c[nH]c2ccccc12)C(=O)O` [Cul5(37-53)] ({5FAM-Ahx}-KQQWFDLFSDVHAVCLW-OH), for which the Kd – broadly, the free concentration of one partner at which half of the binding sites on the other are occupied at equilibrium, for simple one-to-one binding – was determined as 1.2 µM.
To `CC[C@H](C)[C@H](NC(=O)[C@H](CCCCN)NC(=O)[C@H](C)NC(=O)[C@@H]1CCCN1C(=O)CNC(=O)[C@H](CCCCN)NC(=O)[C@H](CC(=O)O)NC(=O)[C@H](CC(=O)O)NC(=O)[C@H](Cc1c[nH]c2ccccc12)NC(=O)[C@H](CC(C)C)NC(=O)[C@H](CS)NC(=O)[C@@H](NC(=O)[C@H](C)NC(=O)[C@H](Cc1c[nH]cn1)NC(=O)[C@@H](NC(=O)[C@H](CC(=O)O)NC(=O)[C@H](CO)NC(=O)[C@H](Cc1ccccc1)NC(=O)[C@H](CC(C)C)NC(=O)CCCCCNC(=O)c1ccc2c(c1)C(=O)OC21c2ccc(O)cc2Oc2cc(O)ccc21)C(C)C)C(C)C)C(=O)N[C@@H](Cc1c[nH]cn1)C(=O)N[C@@H](CCC(N)=O)C(=O)N[C@@H](C)C(=O)N[C@@H](CC(C)C)C(=O)O` [Cul5(43-65)] belongs 4.7 µM.
To `CC(C)C[C@H](NC(=O)CCCCCNC(=O)c1ccc2c(c1)C(=O)OC21c2ccc(O)cc2Oc2cc(O)ccc21)C(=O)N[C@@H](Cc1ccccc1)C(=O)N[C@@H](CO)C(=O)N[C@@H](CC(=O)O)C(=O)N[C@H](C(=O)N[C@@H](Cc1c[nH]cn1)C(=O)N[C@@H](C)C(=O)N[C@H](C(=O)N[C@@H](CS)C(=O)N[C@@H](CC(C)C)C(=O)N[C@@H](Cc1c[nH]c2ccccc12)C(=O)N[C@@H](CC(=O)O)C(=O)O)C(C)C)C(C)C` [Cul5(43-54)] belongs 2.5 µM; to `CC(C)C[C@H](NC(=O)CCCCCNC(=O)c1ccc2c(c1)C(=O)OC21c2ccc(O)cc2Oc2cc(O)ccc21)C(=O)N[C@@H](CCCNC(=N)N)C(=O)N[C@@H](CCC(N)=O)C(=O)N[C@@H](CCC(=O)O)C(=O)N[C@@H](CO)C(=O)N[C@H](C(=O)N[C@H](C(=O)N[C@@H](CCCCN)C(=O)N[C@@H](CCC(N)=O)C(=O)N[C@@H](CCC(N)=O)C(=O)N[C@@H](Cc1c[nH]c2ccccc12)C(=O)O)[C@@H](C)O)C(C)C` [Cul5(30-40)] ({5FAM-Ahx}-LRQESVTKQQW-OH), 16 µM.

Values taken from patent publication US20150268247A1, “Assay for Screening of Anti-Viral Compounds That Inhibit Specific Interaction Interfaces Between Cullin5 and an ElonginB/ElonginC/ CBF-beta/HIV-1 Vif Complex” (UNIVERSITY OF ROCHESTER, priority 2012, published 2015).
